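Values below derive from 48-hour exposures of cells grown in 96-well plates, with endpoints linearly interpolated between the two concentrations bracketing the appropriate inhibition level. The concentration for full growth arrest is given as TGI.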
What was measured:
Assay in all cases: growth of human tumour cells (NCI), 48 h
[1] = system: PC-3 prostate
[2] = system: MALME-3M melanoma
[3] = system: HT29 colon
[4] = system: SN12C renal
[5] = system: NCI-H522 lung
[6] = system: MDA-MB-435
[7] = system: BT-549 breast
[8] = system: A498 renal
[9] = system: NCI-H460 lung
[10] = system: OVCAR-4 ovarian
[11] = system: DU-145 prostate
[12] = system: RXF 393 renal
[13] = system: KM12 colon
[14] = system: MCF7 breast
[15] = system: MOLT-4 leukemia
[16] = system: LOX IMVI melanoma
[17] = system: COLO 205 colon
[18] = system: UACC-257 melanoma
[19] = system: SR leukemia
[20] = system: IGROV1 ovarian
[21] = system: UO-31 renal
[22] = system: CAKI-1 renal
[23] = system: SF-539 CNS
[24] = system: MDA-N
[25] = system: SF-295 CNS
[26] = system: ACHN renal
[27] = system: OVCAR-3 ovarian
[28] = system: SK-MEL-5 melanoma
[29] = system: HS 578T breast
[30] = system: T-47D breast
[31] = system: NCI-H23 lung
[32] = system: HCT-15 colon
[33] = system: A549 NSCLC
[34] = system: 786-0 renal
[35] = system: UACC-62 melanoma
[36] = system: HCT-116 colon
[37] = system: OVCAR-5 ovarian
[38] = system: SNB-75 CNS
[39] = system: K-562 leukemia
[40] = system: HL-60(TB) leukemia
[41] = system: HOP-92 NSCLC
[42] = system: TK-10 renal
[43] = system: SNB-19 CNS
[44] = system: M14 melanoma
[45] = system: HOP-62 NSCLC
[46] = system: NCI/ADR-RES ovarian
[47] = system: NCI-H226 lung
[48] = system: SF-268 CNS
[49] = system: HCC-2998 colon
[50] = system: RPMI-8226 leukemia
[51] = system: SW-620 colon
[52] = system: EKVX NSCLC
[53] = system: CCRF-CEM leukemia
[54] = system: OVCAR-8 ovarian
[55] = system: SK-MEL-28 melanoma
[56] = system: SK-MEL-2 melanoma
[57] = system: U251 CNS
[58] = system: SK-OV-3 ovarian

## C/C=N\n1c(C)n[nH]c1=O
[1]
  TGI: > 100 µM
[2]
  TGI: > 100 µM
[3]
  TGI: > 100 µM
[4]
  TGI: > 100 µM
[5]
  TGI: > 100 µM
[6]
  TGI: > 100 µM
[7]
  TGI: > 100 µM
[8]
  TGI: > 100 µM
[9]
  TGI: > 100 µM
[10]
  TGI: > 100 µM
[11]
  TGI: > 100 µM
[12]
  TGI: > 100 µM
[13]
  TGI: > 100 µM
[14]
  TGI: > 100 µM
[15]
  TGI: > 100 µM
[16]
  TGI: > 100 µM
[17]
  TGI: > 100 µM
[18]
  TGI: > 100 µM
[19]
  TGI: > 100 µM
[20]
  TGI: > 100 µM
[21]
  TGI: > 100 µM
[22]
  TGI: > 100 µM
[23]
  TGI: > 100 µM
[24]
  TGI: > 100 µM
[25]
  TGI: > 100 µM
[26]
  TGI: > 100 µM
[27]
  TGI: > 100 µM
[28]
  TGI: > 100 µM
[29]
  TGI: > 100 µM
[30]
  TGI: > 100 µM
[31]
  TGI: > 100 µM
[32]
  TGI: > 100 µM
[33]
  TGI: > 100 µM
[34]
  TGI: > 100 µM
[35]
  TGI: > 100 µM
[36]
  TGI: > 100 µM
[37]
  TGI: > 100 µM
[38]
  TGI: > 100 µM
[39]
  TGI: > 100 µM
[40]
  TGI: > 100 µM
[41]
  TGI: > 100 µM
[42]
  TGI: > 100 µM
[43]
  TGI: > 100 µM
[44]
  TGI: > 100 µM
[45]
  TGI: > 100 µM
[46]
  TGI: > 100 µM
[47]
  TGI: > 100 µM
[48]
  TGI: > 100 µM
[49]
  TGI: > 100 µM
[50]
  TGI: > 100 µM
[51]
  TGI: > 100 µM
[52]
  TGI: > 100 µM
[53]
  TGI: > 100 µM
[54]
  TGI: > 100 µM
[55]
  TGI: > 100 µM
[56]
  TGI: > 100 µM
[57]
  TGI: > 100 µM

## CC1(C)C(OC(=O)c2ccccc2)C[C@]23CCC[C@](C)(C[C@@H](O)C12)C3 (some centres not stated)
[1]
  TGI: 28.1 µM
[2]
  TGI: 38.5 µM
[3]
  TGI: 31.4 µM
[4]
  TGI: 34.6 µM
[5]
  TGI: 31.4 µM
[6]
  TGI: 32.2 µM
[7]
  TGI: 30.3 µM
[9]
  TGI: 31.3 µM
[10]
  TGI: 46.6 µM
[11]
  TGI: 52.4 µM
[13]
  TGI: 32.1 µM
[14]
  TGI: 30.6 µM
[15]
  TGI: 33.7 µM
[16]
  TGI: 38.9 µM
[17]
  TGI: 33.6 µM
[18]
  TGI: 35.5 µM
[19]
  TGI: > 100 µM
[20]
  TGI: 36.3 µM
[21]
  TGI: 35.6 µM
[22]
  TGI: 40.8 µM
[24]
  TGI: 36.8 µM
[25]
  TGI: 28.1 µM
[26]
  TGI: 31.9 µM
[27]
  TGI: 78.9 µM
[28]
  TGI: 25.8 µM
[29]
  TGI: 40.4 µM
[30]
  TGI: 43.7 µM
[31]
  TGI: 34 µM
[32]
  TGI: 37.1 µM
[33]
  TGI: 34.1 µM
[34]
  TGI: 35.7 µM
[35]
  TGI: 29 µM
[58]
  TGI: > 100 µM
[36]
  TGI: 29.1 µM
[37]
  TGI: 28.6 µM
[38]
  TGI: 34.8 µM
[39]
  TGI: 54.8 µM
[40]
  TGI: > 100 µM
[41]
  TGI: 32.5 µM
[42]
  TGI: 91.6 µM
[43]
  TGI: 47.8 µM
[44]
  TGI: 38.9 µM
[45]
  TGI: 63.4 µM
[46]
  TGI: 46.7 µM
[47]
  TGI: 37.5 µM
[48]
  TGI: 59.5 µM
[50]
  TGI: > 100 µM
[51]
  TGI: 27.9 µM
[52]
  TGI: 36.8 µM
[53]
  TGI: 37.4 µM
[54]
  TGI: 36.2 µM
[55]
  TGI: 29.8 µM
[56]
  TGI: 35.8 µM

## O=C(O)C1CCCN1C(=O)c1cc(Cl)ccn1 (configuration not stated)
[1]
  TGI: > 100 µM
[2]
  TGI: > 100 µM
[3]
  TGI: > 100 µM
[4]
  TGI: > 100 µM
[5]
  TGI: > 100 µM
[6]
  TGI: > 100 µM
[7]
  TGI: > 100 µM
[8]
  TGI: > 100 µM
[9]
  TGI: > 100 µM
[10]
  TGI: > 100 µM
[11]
  TGI: > 100 µM
[12]
  TGI: > 100 µM
[13]
  TGI: > 100 µM
[14]
  TGI: > 100 µM
[15]
  TGI: > 100 µM
[16]
  TGI: > 100 µM
[17]
  TGI: > 100 µM
[18]
  TGI: > 100 µM
[19]
  TGI: > 100 µM
[20]
  TGI: > 100 µM
[21]
  TGI: > 100 µM
[22]
  TGI: > 100 µM
[23]
  TGI: > 100 µM
[24]
  TGI: > 100 µM
[25]
  TGI: > 100 µM
[26]
  TGI: > 100 µM
[27]
  TGI: > 100 µM
[28]
  TGI: > 100 µM
[29]
  TGI: > 100 µM
[30]
  TGI: > 100 µM
[31]
  TGI: > 100 µM
[32]
  TGI: > 100 µM
[33]
  TGI: > 100 µM
[34]
  TGI: > 100 µM
[35]
  TGI: > 100 µM
[36]
  TGI: > 100 µM
[37]
  TGI: > 100 µM
[38]
  TGI: > 100 µM
[39]
  TGI: > 100 µM
[40]
  TGI: > 100 µM
[41]
  TGI: > 100 µM
[42]
  TGI: > 100 µM
[43]
  TGI: > 100 µM
[44]
  TGI: > 100 µM
[45]
  TGI: > 100 µM
[46]
  TGI: > 100 µM
[47]
  TGI: > 100 µM
[48]
  TGI: > 100 µM
[49]
  TGI: > 100 µM
[50]
  TGI: > 100 µM
[51]
  TGI: > 100 µM
[52]
  TGI: > 100 µM
[53]
  TGI: > 100 µM
[54]
  TGI: > 100 µM
[55]
  TGI: > 100 µM
[56]
  TGI: > 100 µM
[57]
  TGI: > 100 µM

Reference: PubChem BioAssay (NCI)
